System: A375 xenografts
Experiment: A375 xenografts in athymic nu/nu mice treated with PLX4720 diet and/or BSO in drinking water
Format: in vivo
Description: 2-Mercaptoethanol is a reducing agent that leads to reduction of disulphide bonds to produce thiols. […] The effect of eliminating GSH in vivo was tested by treating mice (Athymic nu/nu) bearing A375 xenografts with rodent diet (AIN-76A) containing PLX4720 ([…], 416 mg/kg of diet) alone and in combination with BSO (15 mM in drinking water). […] Tumor xenografts in mice treated with the AIN-76 diet mixed with PLX4720 were responsive initially, but approximately 80% of these tumors acquired resistance to BRAFi treatment alone within 140 days (i.e., 20% complete responses; FIG. 2). On the contrary, the combination of BSO with PLX4720 produced nearly 90% complete and durable tumor responses (FIG. 4). […] Tumor progression was defined as a 50% increase (approximately a two standard deviation increase) in tumor volume from study initiation.
Female athymic nu/nu mice (age six weeks) were purchased from Envigo (previously Harlan Laboratories) and housed in the Animal Care Facility at The University of Iowa (Iowa City, Iowa). All procedures were approved by The University of Iowa Institutional Animal Care and Use Committee. All mice were naïve to treatments at the time of xenograft. For each xenograft, 1-3×10^6 cells (451LuBR and A375) were implanted subcutaneously in a 1:1 suspension of Matrigel (Corning) and PBS (flank) using a 27-gauge needle. For all in vivo studies, the mice were randomly assigned to experimental groups post-implant. Animals developed tumors within 7-10 days post-implant. Initiation of treatments was standardized to the time that tumor volume ([(longest length)×(smallest length^2)]/2) reached 80-100 mm^3.
The dose and mode of delivery for PBA was determined by analyzing the pharmacokinetics C-14 labeled PBA in mice (FIG. 5). These drugs were administered alone and in combination depending on the experimental group. The mice were monitored for their state of health every day. Tumor volume and animal weights were measured twice per week. Mice were euthanized when the observed state of health reached the endpoint according to the approved IACUC protocol or when the tumor volume reached 1500 mm^3.
Statistics was conducted using the tumor sizes (mm^3) that were obtained periodically throughout the experiments, resulting in repeated measurements for each mouse. Linear mixed effects regression models were used to estimate and compare treatment group-specific tumor growth curves. Pairwise comparisons were performed to identify treatment group differences in the growth curves. The Kaplan-Meier method was used to estimate the survival curves, and group comparisons were made using the log rank test. Mice who developed ulcerations were censored at day of euthanasia. […]

CCCCS(=N)(=O)CCC(N)C(=O)O (stereo not shown) [BSO, buthionine sulfoximine]
tumor growth rate (BSO 15 mM in drinking water, versus untreated controls): No significant difference | GSH concentrations in tumor samples (mice treated with BSO vs controls): significantly lower

CCCS(=O)(=O)Nc1ccc(F)c(C(=O)c2c[nH]c3ncc(Cl)cc23)c1F [PLX4720]
complete (and durable) tumor responses (PLX4720 416 mg/kg of diet, alone or with BSO 15 mM in drinking water): 20% | tumors that acquired resistance to BRAFi treatment (within 140 days, PLX4720 416 mg/kg of AIN-76A diet): approximately 80%

From US11596613B2, “Compositions and methods for treating cancer” (UNIVERSITY OF IOWA RESEARCH FOUNDATION, priority 2015, dated 2023)
